Measurements: US20250235415A1, “MODULATION OF HUMAN BREAST MILK COMPOSITION” (LUNDQUIST INSTITUTE FOR BIOMEDICAL INNOVATION AT …, priority 2022, published 2025)
“Also recorded” adds a separate entry of the source. Where a name gives a salt, the structure may show the parent alone. Read-outs that look alike come from different tables or passages of the source. Blank lines part the entries; values can stand above or below the compound they belong to.

Columns and labels:
infant gut microbiota = assay: TIM-2 in vitro proximal colon model inoculated with infant feces; design: species or system human; conditions: high dose LNnT (1000 mg/L) with infant formula
Description: Preliminary Data on Effect of HMOs on infant microbiome: These in vitro studies were performed with TIM-2 107-121 inoculated with feces from 3-month old breast-fed infants (pooled microbiota of 5 infants).
Effect of HMO lacto-N-neotetraose (LNnT) on microbiome metabolic activity: We studied the effect of the most abundant HMOs LNnT (200 and 1000 mg/L) on the metabolic activity of the gut microbiota in TIM-2 when exposed to infant formula.
TIM-2 in vitro Colon Model: TIM-2 simulates the colon and consists of four interconnected compartments containing flexible membranes in which peristaltic movements are mimicked. Conditions of healthy human infants are simulated including: body temperature, lumen pH, composition and rate of secretion fluids, delivery of a predigested substrate from the ‘ileum’, mixing and transport of intestinal contents by peristalsis, absorption of water and microbial metabolites through a dialysis system, and presence of a complex, high density, metabolically active and anaerobic microbiota of healthy human infants. The dialysis system prevents accumulation of microbial metabolites, which would otherwise inhibit or kill gut microbiota. The model will be inoculated with a pooled microbiota of healthy human infants (˜2 months) using feces collected (diaper samples) from 10 volunteers and pooled in an anaerobic cabinet to allow for a standardized microbiota. […]

[1] = system: mammary epithelial cells (MECs); assay: 3-D mouse mammary epithelial cell (MEC) primary culture: milk and lipid synthesis and secretion; format: cell-based; conditions: for palmitate-induced MEC "milk" triglyceride concentration: orlistat 100 μmol/L together with palmitate 100 μmol/L; for palmitate-induced MEC "milk" triglyceride concentration / MEC "milk" β-casein protein expression / MEC "milk" triglyceride secretion / concentration: 48 h; for MEC "milk" β-casein protein expression: palmitate 50, 100 μmol/L; for MEC "milk" β-casein protein expression / MEC "milk" triglyceride secretion / concentration: (sodium salt); for MEC "milk" triglyceride secretion / concentration: palmitate 50, 100 μmol/L in basolateral chamber, vs untreated MECs
Description: The growth medium consisted of RPMI-1640 supplemented with 10% FBS, 10 μg/mL of insulin, 10 ng/ml of EGF, 100 U/mL of penicillin, and 100 μg/mL of streptomycin. The lactogenic medium consisted of growth medium plus 0.5 U/mL of prolactin and 1 μM dexamethasone. The palmitate-albumin conjugate stock solution contained a palmitate solution (2 mM/L in 50% ethanol) and FA-free BSA (2%) and was diluted in lactation medium to provide 50 and 100 μmol/L palmitate concentrations. Orlistat was dissolved in ethanol.
3-D Cell Culture Model: This example recreated the milk production pathway in mammary epithelial cell (MEC) primary cultures. The method uses cell culture inserts to maintain the cell polarity of MECs, which secrete milk components into the apical (upper) compartment from nutrient sources in the basolateral (lower) compartment (FIG. 1). Briefly, the mice (N=6) were euthanized, and the 4th abdominal mammary glands from both sides were collected in PBS buffer for the isolation of MECs. The mammary glands were minced and incubated in RPMI-1640 medium containing collagenase III (1.5 mg/mL) for 2 h at 37° C. with gentle shaking, followed by centrifugation (600×g for 1 min). The pellet was re-suspended in RPMI-1640 with 0.2% trypsin for 5 min at room temperature. The fragments of the mammary epithelium were dissociated by gentle pipetting with a Pasteur pipette and centrifuged (600×g for 1 min), and the pellet was re-suspended in 60% FBS (fetal bovine serum) followed by centrifugation (10×g for 1 min). The trypsin treatment and centrifugation with FBS were repeated for the isolation of mammary epithelial fragments without contaminating cells, such as fibroblasts, adipocytes, and myoepithelial cells. The epithelial fragments (0.1 mg) were subsequently seeded in 24-well cell culture plates with inserts to separate the basolateral chamber containing the lactogenic medium (nutrients) and the apical chamber containing the secreted MEC “milk”. The cells were cultured for 6 days at 37° C. in growth medium placed in the basolateral chamber. To induce lactogenesis, MECs were cultured in lactogenic medium placed in the basolateral and apical chambers for 2 days at 37° C. To induce a high milk production ability, MECs were cultured at 39° C. with the lactogenic medium in the basolateral chamber and with RMPI-1640 in the apical chamber (FIG. 1).
Treatments: Palmitate (50, 100 μmol/L) or the lipase inhibitor orlistat (100 μmol/L) together with palmitate (100 μmol/L) were added to the lactogenic medium within the basolateral chamber, and RPMI-1640 was maintained in the apical chamber. After 48 h, MECs and apical medium were collected separately for analysis, as described below.
Sample Analysis: Henceforth, we refer to cellular MECs as “MECs” and to apical medium as MEC “milk”. MECs were fixed for immunostaining or stored at −80° C. for protein and mRNA expression studies. MEC “milk” was frozen at −80° C. and analyzed for triglyceride concentration and protein and mRNA expression.
Western Blot: The cells were harvested and dissolved in RIPA solution with a protease inhibitor cocktail and sonicated, and the cell lysates were processed for the analysis of protein concentration by the […] Protein Assay Kit. For the detection of pSTAT5, the protein phosphatase inhibitor NaF (50 mM) was added to all buffers. MEC protein expression of β-casein (25 kDa), FAS (270 KDa), SREBP1 (68 KDa), and pSTAT5 (92 KDa) was analyzed.
MEC “milk” was similarly analyzed for protein expression of β-casein.
RT-PCR: The mRNA abundance of the target genes (lipoprotein lipase, LPL; FAS) and the reference gene (18S) in MEC and MEC “milk” was determined by RT-PCR. Briefly, RNA was extracted following the manufacturer's instructions, using the RNeasy Mini Kit (Qiagen, Valencia, CA, USA). Briefly, a guanidine-thiocyanate-containing lysis buffer and ethanol were added to the samples to promote the selective binding of RNA to the RNeasy membrane. […]

[2] = system: mammary epithelial cells (MECs); assay: Cell permeability: FITC and FITC-dextran flux from basolateral to apical compartment; format: cell-based, mouse
Description: Cell Permeability: To assess whether mammary epithelial permeability was altered by the treatments, we measured the unidirectional flux of fluorescein isothiocyanate (FITC, molecular weight 376) and FITC-labeled dextran 3000 (FITC-dex) from the basolateral to the apical compartments. MECs were prepared as stated above and treated with palmitate and orlistat as described above. After 2 days, FITC and FITC-dex (0.5 mg/mL) were added to the basolateral chamber, and the cells were incubated for 1 h. Thereafter, the basolateral and apical media were aspirated separately, and fluorescence intensity was measured at 490/520 nm excitation/emission maxima. The permeability of the cells is expressed as percent of flux into the apical chamber/total FITC administered into the basolateral chamber.

in vitro cultures = assay: Cell viability of in vitro cultures with orlistat; format: cell-based; conditions: orlistat 250 μM, orlistat-to-palmitate ratio 1:1
[3] = humans; cited from earlier work

SMILES: CC(=O)N[C@H]1[C@H](O[C@H]2[C@@H](O)[C@@H](CO)O[C@@H](O[C@H]3[C@H](O)[C@@H](O)C(O)O[C@@H]3CO)[C@@H]2O)O[C@H](CO)[C@@H](O[C@@H]2O[C@H](CO)[C@H](O)[C@H](O)[C@H]2O)[C@@H]1O (mixture of isomers) [LNnT, lacto-N-neotetraose]
L-lactate production by gut microbiota (infant gut microbiota): increased

FITC fluorescence measured in the apical chamber, treated vs non-treated ([2]; after 48 h treatment, 1 h incubation with FITC): comparable
SMILES: CCCCCCCCCCC[C@@H](C[C@@H]1OC(=O)[C@H]1CCCCCC)OC(=O)[C@H](CC(C)C)NC=O [orlistat]
palmitate-induced MEC "milk" triglyceride concentration [1]: reversed; also recorded: suppressed
palmitate-induced MEC "milk" triglyceride concentration ([1]; listed as Orlistat): normalized
cell viability (in vitro cultures): demonstrated cell viability
systemic absorption [3]: minimal

FITC fluorescence measured in the apical chamber, treated vs non-treated [2]: comparable
SMILES: CCCCCCCCCCCCCCCC(=O)O [palmitate, palmitate (sodium salt)]
MEC "milk" β-casein protein expression ([1]; apical medium): dose-dependent increase
MEC "milk" β-casein protein expression ([1]; apical medium, listed as palmitic): increases
MEC "milk" mRNA expression of Fas ([1]; apical medium, palmitate 48 h): increased
MEC "milk" mRNA expression of Lpl ([1]; apical medium, palmitate 48 h): increased
MEC mRNA expression of Fas ([1]; cellular MECs, palmitate 48 h): increased
MEC mRNA expression of Lpl ([1]; cellular MECs, palmitate 48 h): increased
MEC protein expression of FAS ([1]; cellular MECs, palmitate 48 h): increased
MEC protein expression of SREBP1 ([1]; cellular MECs, palmitate 48 h): increased
MEC protein expression of pSTAT5 ([1]; cellular MECs, palmitate 48 h): increased
MEC protein expression of β-casein ([1]; cellular MECs, palmitate 48 h): increased
MEC "milk" triglyceride secretion / concentration [1]: dose-dependent increase
MEC "milk" triglyceride secretion / concentration ([1]; listed as Na-palmitate): doubled
MEC "milk" triglyceride secretion / concentration ([1]; listed as palmitic): increases
